From the supplement of paper PMC10307832

What was measured:
Assay in all cases: relative viability (nuclei count vs DMSO), 5 days (fraction); higher = more cells survive
NCI-H1355 = tested on: NCI-H1355
Outline: (§1)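 Relative viability divides the nuclei count in treated wells by that in vehicle wells. Lung cancer cell lines were seeded in 1536-well plates, dosed by pin tool the next day, and fixed and stained after 5 days in one step with final 0.05% Triton X-100, 1% formaldehyde and 1 ug/ml Hoechst. Dosing was a single drug or a fixed anchor-drug dose plus five library-drug doses (not always all listed) in √10 steps, and values are medians of duplicate plates imaged at 4×.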

NCI-H1792 = tested on: NCI-H1792
Outline: as §1

NCI-H1563 = tested on: NCI-H1563
Outline: as §1

SK-MES-1 = tested on: SK-MES-1
Outline: as §1

RERF-LC-KJ = tested on: RERF-LC-KJ
Outline: as §1

NCI-H1915 = tested on: NCI-H1915
Outline: as §1

SW 900 = tested on: SW 900
Outline: as §1

NCI-H727 = tested on: NCI-H727
Outline: as §1

NCI-H520 = tested on: NCI-H520
Outline: as §1

NCI-H661 = tested on: NCI-H661
Outline: as §1

NCI-H650 = tested on: NCI-H650
Outline: as §1

NCI-H522 = tested on: NCI-H522
Outline: as §1

LXF-289 = tested on: LXF-289
Outline: as §1

NCI-H1755 = tested on: NCI-H1755
Outline: as §1

NCI-H322M = tested on: NCI-H322M
Outline: as §1

NCI-H2347 = tested on: NCI-H2347
Outline: as §1

NCI-H460 = tested on: NCI-H460
Outline: as §1

NCI-H441 = tested on: NCI-H441
Outline: as §1

NCI-H596 = tested on: NCI-H596
Outline: as §1

NCI-H1651 = tested on: NCI-H1651
Outline: as §1

PC-14 = tested on: PC-14
Outline: as §1

NCI-H2170 = tested on: NCI-H2170
Outline: as §1

NCI-H3122 = tested on: NCI-H3122
Outline: as §1

LCLC-103H = tested on: LCLC-103H
Outline: as §1

COc1cc(N2CCC(C(N)=O)CC2)ccc1Nc1nc(N)c(Cl)c(Nc2ccccc2S(=O)(=O)C(C)C)n1 [HG-5-88-01] + N=C(N)NC(=N)NCCc1ccccc1 [Phenformin] (partner 250 µM)
relative viability (NCI-H1355; first compound 0.04 µM): 0.487 | relative viability (NCI-H1355; first compound 0.1265 µM): 0.493 | relative viability (NCI-H1355; first compound 0.4 µM): 0.431 | relative viability (NCI-H1355; first compound 1.265 µM): 0.455 | relative viability (NCI-H1355; first compound 4 µM): 0.316 | relative viability (NCI-H1792; first compound 0.04 µM): 0.897 | relative viability (NCI-H1792; first compound 0.1265 µM): 0.647 | relative viability (NCI-H1792; first compound 0.4 µM): 0.548 | relative viability (NCI-H1792; first compound 1.265 µM): 0.525 | relative viability (NCI-H1792; first compound 4 µM): 0.291 | relative viability (NCI-H1563; first compound 0.04 µM): 0.7 | relative viability (NCI-H1563; first compound 0.1265 µM): 0.64 | relative viability (NCI-H1563; first compound 0.4 µM): 0.683 | relative viability (NCI-H1563; first compound 1.265 µM): 0.604 | relative viability (NCI-H1563; first compound 4 µM): 0.601 | relative viability (SK-MES-1; first compound 0.04 µM): 0.665 | relative viability (SK-MES-1; first compound 0.1265 µM): 0.646 | relative viability (SK-MES-1; first compound 0.4 µM): 0.652 | relative viability (SK-MES-1; first compound 1.265 µM): 0.602 | relative viability (SK-MES-1; first compound 4 µM): 0.643 | relative viability (RERF-LC-KJ; first compound 0.04 µM): 0.421 | relative viability (RERF-LC-KJ; first compound 0.1265 µM): 0.4 | relative viability (RERF-LC-KJ; first compound 0.4 µM): 0.407 | relative viability (RERF-LC-KJ; first compound 1.265 µM): 0.371 | relative viability (RERF-LC-KJ; first compound 4 µM): 0.241 | relative viability (NCI-H1915; first compound 0.04 µM): 0.38 | relative viability (NCI-H1915; first compound 0.1265 µM): 0.354 | relative viability (NCI-H1915; first compound 0.4 µM): 0.381 | relative viability (NCI-H1915; first compound 1.265 µM): 0.416 | relative viability (NCI-H1915; first compound 4 µM): 0.328 | relative viability (SW 900; first compound 0.04 µM): 0.592 | relative viability (SW 900; first compound 0.1265 µM): 0.545 | relative viability (SW 900; first compound 0.4 µM): 0.622 | relative viability (SW 900; first compound 1.265 µM): 0.671 | relative viability (SW 900; first compound 4 µM): 0.408 | relative viability (NCI-H727; first compound 0.04 µM): 0.554 | relative viability (NCI-H727; first compound 0.1265 µM): 0.484 | relative viability (NCI-H727; first compound 0.4 µM): 0.394 | relative viability (NCI-H727; first compound 1.265 µM): 0.416 | relative viability (NCI-H727; first compound 4 µM): 0.352 | relative viability (NCI-H520; first compound 0.04 µM): 0.441 | relative viability (NCI-H520; first compound 0.1265 µM): 0.67 | relative viability (NCI-H520; first compound 0.4 µM): 0.57 | relative viability (NCI-H520; first compound 1.265 µM): 0.431 | relative viability (NCI-H520; first compound 4 µM): 0.492 | relative viability (NCI-H661; first compound 0.04 µM): 0.301 | relative viability (NCI-H661; first compound 0.1265 µM): 0.277 | relative viability (NCI-H661; first compound 0.4 µM): 0.259 | relative viability (NCI-H661; first compound 1.265 µM): 0.24 | relative viability (NCI-H661; first compound 4 µM): 0.248 | relative viability (NCI-H650; first compound 0.04 µM): 0.429 | relative viability (NCI-H650; first compound 0.1265 µM): 0.492 | relative viability (NCI-H650; first compound 0.4 µM): 0.417 | relative viability (NCI-H650; first compound 1.265 µM): 0.424 | relative viability (NCI-H650; first compound 4 µM): 0.335 | relative viability (NCI-H522; first compound 0.04 µM): 0.711 | relative viability (NCI-H522; first compound 0.1265 µM): 0.657 | relative viability (NCI-H522; first compound 0.4 µM): 0.697 | relative viability (NCI-H522; first compound 1.265 µM): 0.558 | relative viability (NCI-H522; first compound 4 µM): 0.502 | relative viability (LXF-289; first compound 0.04 µM): 0.565 | relative viability (LXF-289; first compound 0.1265 µM): 0.589 | relative viability (LXF-289; first compound 0.4 µM): 0.415 | relative viability (LXF-289; first compound 1.265 µM): 0.51 | relative viability (LXF-289; first compound 4 µM): 0.431 | relative viability (NCI-H1755; first compound 0.04 µM): 0.634 | relative viability (NCI-H1755; first compound 0.1265 µM): 0.612 | relative viability (NCI-H1755; first compound 0.4 µM): 0.605 | relative viability (NCI-H1755; first compound 1.265 µM): 0.616 | relative viability (NCI-H1755; first compound 4 µM): 0.521 | relative viability (NCI-H322M; first compound 0.04 µM): 0.793 | relative viability (NCI-H322M; first compound 0.1265 µM): 0.669 | relative viability (NCI-H322M; first compound 0.4 µM): 0.689 | relative viability (NCI-H322M; first compound 4 µM): 0.704 | relative viability (NCI-H2347; first compound 0.04 µM): 0.295 | relative viability (NCI-H2347; first compound 0.1265 µM): 0.626 | relative viability (NCI-H2347; first compound 0.4 µM): 0.448 | relative viability (NCI-H2347; first compound 1.265 µM): 0.41 | relative viability (NCI-H2347; first compound 4 µM): 0.487 | relative viability (NCI-H460; first compound 0.04 µM): 0.497 | relative viability (NCI-H460; first compound 0.1265 µM): 0.491 | relative viability (NCI-H460; first compound 0.4 µM): 0.587 | relative viability (NCI-H460; first compound 1.265 µM): 0.51 | relative viability (NCI-H460; first compound 4 µM): 0.214 | relative viability (NCI-H441; first compound 0.04 µM): 0.835 | relative viability (NCI-H441; first compound 0.1265 µM): 0.789 | relative viability (NCI-H441; first compound 0.4 µM): 0.852 | relative viability (NCI-H441; first compound 1.265 µM): 0.589 | relative viability (NCI-H441; first compound 4 µM): 0.294 | relative viability (NCI-H596; first compound 0.04 µM): 0.657 | relative viability (NCI-H596; first compound 0.1265 µM): 0.807 | relative viability (NCI-H596; first compound 0.4 µM): 0.612 | relative viability (NCI-H596; first compound 1.265 µM): 0.728 | relative viability (NCI-H596; first compound 4 µM): 0.379 | relative viability (NCI-H1651; first compound 0.04 µM): 0.358 | relative viability (NCI-H1651; first compound 0.1265 µM): 0.341 | relative viability (NCI-H1651; first compound 0.4 µM): 0.367 | relative viability (NCI-H1651; first compound 1.265 µM): 0.348 | relative viability (NCI-H1651; first compound 4 µM): 0.346 | relative viability (PC-14; first compound 0.04 µM): 0.65 | relative viability (PC-14; first compound 0.1265 µM): 0.522 | relative viability (PC-14; first compound 0.4 µM): 0.484 | relative viability (PC-14; first compound 1.265 µM): 0.212 | relative viability (PC-14; first compound 4 µM): 0.103 | relative viability (NCI-H2170; first compound 0.04 µM): 0.466 | relative viability (NCI-H2170; first compound 0.1265 µM): 0.442 | relative viability (NCI-H2170; first compound 0.4 µM): 0.461 | relative viability (NCI-H2170; first compound 1.265 µM): 0.304 | relative viability (NCI-H2170; first compound 4 µM): 0.352 | relative viability (NCI-H3122; first compound 0.04 µM): 0.216 | relative viability (NCI-H3122; first compound 0.1265 µM): 0.17 | relative viability (NCI-H3122; first compound 0.4 µM): 0.146 | relative viability (NCI-H3122; first compound 1.265 µM): 0.129 | relative viability (NCI-H3122; first compound 4 µM): 0.15 | relative viability (LCLC-103H; first compound 0.04 µM): 0.332 | relative viability (LCLC-103H; first compound 0.1265 µM): 0.342 | relative viability (LCLC-103H; first compound 0.4 µM): 0.311 | relative viability (LCLC-103H; first compound 1.265 µM): 0.308 | relative viability (LCLC-103H; first compound 4 µM): 0.302
